From EPA's ToxValDB 9.5 (doi:10.2903/j.efsa.2014.3787)

Assays:
[1] = test system: Hypoaspis aculeifer; details: acute, duration: 14 days
[2] = test system: Folsomia candida; details: chronic/long-term, duration: 28 days
[3] = test system: Tagia sp.; details: for LC50: acute, duration: 14 days, mortality; for NOEC: chronic/long-term, duration: 8 weeks
[4] = test system: Typhlodromus pyri; assay: LR50; higher = less toxic; details: chronic/long-term; duration: 7 days; mortality
[5] = test system: Aphidius rhopalosiphi; assay: LR50; higher = less toxic; details: acute; duration: 48 hours; mortality
[6] = test system: Coturnix japonica; details: reproduction developmental; duration: 6 weeks
[7] = test system: Rattus norvegicus
[8] = test system: Lepomis macrochirus; details: acute; duration: 96 hours; mortality
[9] = test system: Oncorhynchus mykiss
[10] = test system: Colinus virginianus; details: acute, oral
[11] = test system: Oryctolagus sp.
[12] = test system: Daphnia magna; details: chronic/long-term; duration: 21 days; mobility
[13] = test system: Apis mellifera; details: acute, duration: 72 hours, mortality

CCOc1nc(NC)nc(NC(N)=O)n1 [Ethametsulfuron methyl metabolite (IN-B9161)] showed an NOEC [1] of 76.9 mg/kg and an NOEC [2] of 76.9 mg/kg.
For NS(=O)(=O)c1ccccc1C(=O)O [2-Sulfamoylbenzoic acid], the LC50 [3] was > 1000 mg/kg and the NOEC [3] was 1000 mg/kg.
In the case of CCOc1nc(NC)nc(NC(=O)NS(=O)(=O)c2ccccc2C(=O)OC)n1 [Ethametsulfuron-methyl], the LR50 [4] is reported as > 11.4 g/ha, the LR50 [5] is reported as > 18.8 g/ha and the NOEC [6] is reported as 229 mg/kg-day. The LD50 ([7]; acute, oral, mortality) was > 5000 mg/kg-day, the NOAEL ([7]; chronic, duration: 2 years, clinical chemistry) was 21 mg/kg-day and the LC50 [8] was > 123 µg/mL. For the same molecule, the LC50 ([9]; acute, duration: 96 hours, mortality) was > 126 µg/mL, the NOEC ([9]; chronic/long-term, duration: 87 days, growth) was 5.4 mg/L and the NOEC ([1]; reproduction) was 100 mg/kg. For the same molecule, the LD50 ([10]; duration: 5 days, diet) was > 1160 mg/kg-day, the LD50 [10] was 2250 mg/kg-day and the LOAEL ([11]; developmental, development) was 250 mg/kg-day. It also gave an NOAEL ([11]; reproduction developmental, organ weight) of 250 mg/kg-day, an LC50 [3] of 116 mg/kg and an NOEC ([3]; reproduction) of 27.3 mg/kg. For the same molecule, the NOEC [12] was 4.7 mg/L, the NOEC ([2]; reproduction) was 100 mg/kg and the LD50 ([13]; dermal) was 4.62 µg/piece. The LD50 ([13]; oral, unspecified) was 40.8 µg/piece.
For CCOc1nc(N)nc(NC(=O)NS(=O)(=O)c2ccccc2C(=O)OC)n1 [N-Demethyl ethametsulfuronmethyl], the LC50 [3] was > 100 mg/kg and the NOEC [2] was 50 mg/kg.
